Experimental data as given in patent publication US4423218A, “Antibiotic neplanocin A” (Toyo Jozo Kabushiki Kaisha, priority 1978, dated 1983).

Key:
Nature (basicity) = assay type: physicochemical
in vivo = settings: mouse, ip, mice
[1] = Repeated intraperitoneal administration for 14 days, mortality; assay type: in vivo; settings: intraperitoneally for 14 days, 5 mg/kg/day
Solubility = assay type: physicochemical
[2] = test system: Helminthosporium oryzae M 0306; test: Growth inhibitory activity on plant pathogenic fungi (agar plate); assay type: cell-based; settings: Bipolaris oryzae, M0306; 100 γ/ml solution, agar plate of Helminthosporium oryzae M 0306; read-out: inhibitory zone diameter
From the text: (1) Growth inhibitory activity on plant pathogenic fungi: […]

## Nc1ncnc2c1ncn2C1C=C(CO)C(O)C1O (single isomer, unassigned) [neplanocin A]
Nature (basicity)
  Nature: weakly basic
In vivo
  LD50: 13.7 mg/kg
[1]
  mortalities: No mortalities were observed
Solubility; acetic acid
  Solubility: Soluble
Solubility; aqueous acetone
  Solubility: Soluble
Solubility; benzene
  Solubility: Insoluble
Solubility; chloroform
  Solubility: Insoluble
Solubility; dimethylformamide
  Solubility: Soluble
Solubility; dimethylsulfoxide
  Solubility: Soluble
Solubility; ethyl acetate
  Solubility: Insoluble
Solubility; hexane
  Solubility: Insoluble
Solubility; water
  Solubility: Soluble
[2]
  zone of inhibition at 100 µg/mL: 18.9 mm
